Patent US4563465A, “Treatment of migraine with substituted tropyl benzoate derivatives” (Merrell Dow Pharmaceuticals Inc., priority 1981, dated 1986)
Like-named read-outs stand apart in the source and are kept apart here.

Tests used:
[1] = test system: 5-HT (Von Bezold-Jarisch reflex); assay: Von Bezold-Jarisch reflex evoked by i.v. 5-HT in the anaesthetized rat, antagonism; assay type: in vivo, rat (male Sprague-Dawley); settings: for ED50 / minimal effective dose: iv; for ED50: read-out: ED50 (inhibits the response to 5-HT by 50%); for minimal effective dose: read-out: threshold dose (just inhibits the response to 5-HT); for potency relative to metoclopramide: Von Bezold-Jarisch reflex, comparative test
Excerpt: The activity of these compounds against 5-HT can be assessed in vivo by measurement of the effect of the compound on the Von Bezold-Jarisch Reflex induced by 5-HT injected intravenously into the rat (A.S. Paintal, Physiol. Rev. 53, 159-227, 1973). The transient cardiac slowing arises from an increased […] vagus activity arising from stimulation by 5-HT of sensory afferent fibres in and around the heart (see Example 3).
Antagonism of the Von Bezold-Jarisch reflex evoked by 5-HT in the anaesthetized rat was measured for tropyl 3,5-dimethoxybenzoate (A), tropyl 3,5-dimethylbenzoate (B) and tropyl 3,5-dichlorobenzoate (C) using the following method.
Male Sprague-Dawley rats weighing 250-300 g are anaesthetized with urethane, 1.25 g/kg injected intraperitoneally and set up for recording blood pressure and heart rate as described in J. R. Fozard et al, J. Cardiovas. Pharmacol. 2, 229-245 (1980). A submaximal dose of 5-HT ([…]) is given repeatedly into the cannulated jugular vein and changes in heart rate are quantified. Antagonists are given intravenously and the doses required to just inhibit the response to 5-HT (threshold dose) or to inhibit the response to 5-HT by 50% (ED50) are determined.

rat uterus, 5-HT = assay: Selectivity: inhibition of response to 5-HT, rat uterus; assay type: biochemical; settings: agonist 5-HT, read-out: concentration to inhibit standard response to stimulants by 50% (IC50)
Excerpt: (§1) A selection of classical in vitro pharmacological test preparations (rat uterus, rat fundus, guinea-pig ileum, guinea-pig taenia caeci) were set up according to well-established procedures (see "Pharmacological Experiments on Isolated Preparations" Staff of the Department of Pharmacology, University of Edinburgh, Livingstone, Edinburgh 1970). Various spasmogens were used to elicit contraction of these tissues though mechanisms other than the 5-HT "M" receptor. The concentrations of tropyl 3,5-dimethoxybenzoate (A), tropyl 3,5-dimethylbenzoate (B) and tropyl 3,5-dichlorobenzoate (C) which reduced the effects of a submaximal dose of agonist by 50% were determined (IC50). The results are set forth in Table VI below in which the compounds are identified by the reference letters used above.

rat fundus, 5-HT = assay: Selectivity: inhibition of response to 5-HT, rat fundus; assay type: biochemical; settings: agonist 5-HT, read-out: concentration to inhibit standard response to stimulants by 50% (IC50)
Excerpt: as §1

rat uterus, oxytocin = assay: Selectivity: inhibition of response to oxytocin, rat uterus; assay type: biochemical; settings: agonist oxytocin, read-out: concentration to inhibit standard response to stimulants by 50% (IC50)
Excerpt: as §1

[2] = test system: rat fundus, acetylcholine; assay: Selectivity: inhibition of response to acetylcholine, rat fundus; assay type: biochemical; settings: agonist acetylcholine, read-out: concentration to inhibit standard response to stimulants by 50% (IC50)
Excerpt: as §1

[3] = test system: guinea-pig ileum, acetylcholine; assay: Selectivity: inhibition of response to acetylcholine or carbachol, guinea-pig ileum; assay type: biochemical; settings: read-out: concentration to inhibit standard response to stimulants by 50% (IC50)
Excerpt: as §1
**Carbachol agonist instead of acetylcholine

[4] = test system: guinea-pig ileum, histamine; assay: Selectivity: inhibition of response to histamine, guinea-pig ileum; assay type: biochemical; settings: agonist histamine, read-out: concentration to inhibit standard response to stimulants by 50% (IC50)
Excerpt: as §1

[5] = test system: guinea-pig taenia caeci, calcium; assay: Selectivity: inhibition of response to calcium, guinea-pig taenia caeci; assay type: biochemical; settings: agonist calcium, guinea-pig taenia caeci in potassium depolarized Tyrode solution; read-out: concentration to inhibit standard response to stimulants by 50% (IC50)
Excerpt: as §1
*In potassiumdepolarized Tyrode solution

mouse and rat = assay: Acute toxicity (LD50) in the mouse and rat, overall statement; assay type: in vivo
[6] = test system: patients with migraine or cluster headaches; assay: Pilot study of tolerance and efficacy, intravenous, in patients with migraine or cluster headaches; assay type: in vivo, human (patients); settings: for headache response: Patient No. 6
Description: This study was designed to evaluate tolerance and, if possible, efficacy of intravenous tropyl 3,5-dichlorobenzoate in patients with migraine or cluster headaches.
Eight patients (4 males), aged 27-47 with known headache disorders of 5-27 years duration (see Table VII) took part in the study but Patients Nos. 2 and 4 had cluster not migraine headaches and the cause of headaches in Patient No. 6 was unknown.
Tropyl 3,5-dichlorobenzoate was provided as a sterile solution, 1 mg/ml; the desired dose to be diluted in 10 ml normal saline for intravenous infusion over a 2 minute period. No other therapy was taken for at least 24 hours before treatment or during the course of therapy.
Doses as high as 14 mg/day and 9 mg single dose were administered without any signs of intolerance.

acute migraine attack = settings: slow intravenous injection, 10 mg; J. B. Hughes 1977; cited from earlier work
[7] = Patient 6, after 4 mg dose i.v.

Structure (SMILES)	ED50 ([1]; Rattus norvegicus)	minimal effective dose ([1]; Rattus norvegicus)	potency relative to metoclopramide [1]	IC50 (rat uterus, 5-HT)	IC50 (rat fundus, 5-HT)	IC50 (rat uterus, oxytocin)	IC50 [2]	IC50 ([3]; agonist acetylcholine)	IC50 [4]	IC50 [5]	toxicity as shown by LD50 values (mouse and rat)	other results
COc1cc(OC)cc(C(=O)OC2CC3CCC(C2)N3C)c1 (stereo not shown) [A, tropyl 3,5-dimethoxybenzoate]	13.7 ± 1.2 µg/kg	6.96 ± 0.9 µg/kg	many times more potent than metoclopramide	> 52.5 µM	40 µM	> 52.5 µM	13.1 µM	9.56 µM	6.61 µM	36.1 µM	relatively non-toxic	–
Cc1cc(C)cc(C(=O)OC2CC3CCC(C2)N3C)c1 (stereo not shown) [B, tropyl 3,5-dimethylbenzoate]	6.07 ± 0.72 µg/kg	3.57 ± 0.33 µg/kg	many times more potent than metoclopramide	–	–	–	–	–	–	34.2 µM	relatively non-toxic	IC50 ([3]; carbachol agonist instead of acetylcholine): 9.59 µM
CN1C2CCC1CC(OC(=O)c1cc(Cl)cc(Cl)c1)C2 (stereo not shown) [C, tropyl 3,5-dichlorobenzoate]	22 ± 3.2 µg/kg	7.72 ± 0.63 µg/kg	many times more potent than metoclopramide	25.4 µM	> 50.9 µM	> 50.9 µM	12.4 µM	8.05 µM	3.68 µM	28.6 µM	relatively non-toxic	response ([6]; Patient 1, i.v. 1 mg, then 1 hour later, 2 mg): no effect on headache or nausea; response ([6]; Patient 2 (cluster), i.v. 1 mg): no effect; response ([6]; Patient 4 (cluster), i.v. 3 mg): no effect; effect of increased doses ([6]; Patient 6, 5 mg bid × 2 days, then 6 mg bid × 11 days i.v.): no greater effect; duration of reduction of pain intensity [6, 7]: 4 to 8 h; time to reduction of pain intensity [6, 7]: ≤ 30 min; reduction of pain intensity ([6]; Patient 6, within 30 minutes after 4 mg dose i.v.): 70-80%; response ([6]; Patient 7, i.v. 3 mg × 1 day, then 5 mg × 2 days, then 7 mg × 1 day): no effect; response during increasing doses ([6]; Patient 8, i.v. 6 mg × 1 day, 7 mg × 2 days, 9 mg × 1 day): maintained during increasing doses; reduction of pain ([6]; Patient 8, with 3 mg i.v.): about 30%; headache response ([6]; 3 mg single doses i.v.): slight reduction in their bilateral headache; headache response ([6]; 4 mg bid i.v.): further amelioration; time after stopping therapy to return of headaches to pretreatment intensity ([6]; Patient No. 8): 6 to 7 days; symptom response ([6]; Patient No. 8, first dose of 3 mg i.v.): decrease in all symptoms; repeated dose well tolerated (highest) ([6]; i.v. b.i.d., patients with headaches): up to 7 mg; cumulative dose well tolerated (highest) ([6]; i.v., over 18 days): 177 mg; dose per day administered without any signs of intolerance (highest) ([6]; i.v., patients): 14 mg/day; patients with marked diminution of headache and associated symptoms ([6]; patients treated with repeated doses (Patients Nos. 6 and 8), i.v.): two of the three patients; pain intensity and associated symptoms ([6]; some patients treated with doses of 3 mg or greater, i.v.): ameliorated
CCN(CC)CCNC(=O)c1cc(Cl)c(N)cc1OC [metoclopramide, reference compound]	–	–	–	–	–	–	–	–	–	–	–	minimal effective dose ([1]; antagonist i.v., anaesthetized rat): 233 ± 66.3 µg/kg; relief of acute migraine attack (acute migraine attack): immediate relief of acute migraine attack
